{
  "source": "ChEMBL document CHEMBL5543137",
  "about": "“Design and Synthesis of Novel Ultralong-Acting Peptides as EDP-EBP Interaction Inhibitors for Pulmonary Fibrosis Treatment” (J Med Chem, 2024)",
  "key": {"[1]": {"tested_on": "Mus musculus", "test": "Antifibrotic activity against BLM-induced C57BL/6 mouse pulmonary fibrosis model assessed as reduction in lung vimentin expression at 240 ug/kg/day, sc administered for 2 weeks starting from 7 days post BLM induction and measured after 21 days post BLM induction by Western blotting analysis", "assay_type": "functional, organism-based", "details": "dose 240.0 µg/kg/day"}, "[2]": {"tested_on": "Mus musculus", "test": "Antifibrotic activity against BLM-induced sc dosed C57BL/6 mouse pulmonary fibrosis model assessed as minimum effective dose administered for 2 weeks starting from 7 days post BLM induction and measured after 21 days post BLM induction", "assay_type": "functional", "details": "C57BL/6, 336 h, dose 30-240 µg/kg, read-out: MED"}, "[3]": {"tested_on": "Mus musculus", "test": "Antifibrotic activity against BLM-induced C57BL/6 mouse pulmonary fibrosis model assessed as reduction in Tpm1 gene expression at 240 ug/kg/day, sc administered for 2 weeks starting from 7 days post BLM induction and measured after 21 days post BLM induction by ScRNA-sequencing analysis", "assay_type": "functional, organism-based", "details": "dose 240.0 µg/kg/day"}, "[4]": {"tested_on": "Mus musculus", "test": "Antifibrotic activity against BLM-induced C57BL/6 mouse pulmonary fibrosis model assessed as reduction in Vimentin expression at 240 ug/kg/day, sc administered for 2 weeks starting from 7 days post BLM induction and measured after 21 days post BLM induction in presence of GM6001", "assay_type": "functional, organism-based", "details": "dose 240.0 µg/kg/day"}, "[5]": {"tested_on": "Mus musculus", "test": "Antifibrotic activity against BLM-induced C57BL/6 mouse pulmonary fibrosis model assessed as reduction in MMP-12 expression at 240 ug/kg/day, sc administered for 2 weeks starting from 7 days post BLM induction and measured after 21 days post BLM induction in presence of Clo-Lip", "assay_type": "functional, organism-based", "details": "dose 240.0 µg/kg/day"}, "[6]": {"tested_on": "Mus musculus", "test": "Antifibrotic activity against BLM-induced C57BL/6 mouse pulmonary fibrosis model assessed as reduction in alpha-SMA expression at 240 ug/kg/day, sc administered for 2 weeks starting from 7 days post BLM induction and measured after 21 days post BLM induction in presence of GM6001", "assay_type": "functional, organism-based", "details": "dose 240.0 µg/kg/day"}},
  "note": "The source made the active and inactive calls. The rule behind the calls is not given here. Starred links: 1 amine or outer side, 2 acyl side, 3 side chain; linkers in the order of their positions; H or OH if unused. Non-standard residues stand in square brackets, D forms with d. Residues, ends and D or L forms follow the SMILES beside them. *: point of attachment. C20 diacid = O=C(O)CCCCCCCCCCCCCCCCCCC(=O)*; γGlu = O=C(O)[C@H](CCC(=O)[*:2])N[*:1]; Iva = CC[C@](C)(N)C(=O)O; PEG2 = NCCOCCOCCC(=O)O",
  "data": [
    {"compound": "CC[C@](C)(NC(=O)[C@@H](NC(=O)CCOCCOCCNC(=O)CCOCCOCCNC(=O)CC[C@H](NC(=O)CCCCCCCCCCCCCCCCCCC(=O)O)C(=O)O)C(C)C)C(=O)NCC(=O)N[C@@H](CO)C(=O)N1CCC[C@H]1C(=O)N[C@@H](CO)C(=O)N[C@@H](C)C(=O)N[C@@H](CCC(N)=O)C(=O)N[C@@H](CCC(=O)O)C(=O)N[C@@H](CCC(=O)O)C(=O)N[C@@H](C)C(=O)N[C@@H](CO)C(=O)N1CCC[C@H]1C(=O)N[C@@H](C)C(N)=O", "note": "({C20 diacid-γGlu-PEG2-PEG2}-V[Iva]GSPSAQEEASPA-NH2)", "values": [
      {"measurement": "Activity", "setting": "[1]", "result": "Active"},
      {"measurement": "minimal effective dose", "setting": "[2]", "result": 0.03, "unit": "mg/kg"},
      {"measurement": "Activity", "setting": "[3]", "result": "Active"},
      {"measurement": "Activity", "setting": "[4]", "result": "inactive"},
      {"measurement": "Activity", "setting": "[5]", "result": "inactive"},
      {"measurement": "Activity", "setting": "[6]", "result": "inactive"}
    ]}
  ]
}
